Source: BindingDB's records for doi:10.1016/s1074-5521(98)90117-x (Dupont Pharmaceuticals, 1998)

Molecular target: HIV-1 protease (Human immunodeficiency virus, UniProt O90785)
Assay: Protease Inhibtion Assay
Settings: pH 5.5
Text: Protease inhibition fluorescence-based assay using cyclic ureas to inhibit HIV-protease.

HIV-1 protease, sequence (O90785 whole entry): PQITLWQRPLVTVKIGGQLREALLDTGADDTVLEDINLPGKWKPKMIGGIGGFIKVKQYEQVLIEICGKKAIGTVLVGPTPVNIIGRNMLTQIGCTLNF

Row | Compound | Ki [pM]
1 | Nc1cccc(CN2C(=O)N(Cc3cccc(N)c3)[C@H](Cc3ccccc3)[C@H](O)[C@@H](O)[C@H]2Cc2ccccc2)c1 | 300
2 | CCCNc1[nH]nc2ccc(CN3C(=O)N(Cc4ccc5n[nH]c(NCCC)c5c4)[C@H](Cc4ccccc4)[C@H](O)[C@@H](O)[C@H]3Cc3ccccc3)cc12 [3-alkylaminoindazole cyclic urea, (n-Pr)] | 230
3 | CCNc1[nH]nc2ccc(CN3C(=O)N(Cc4ccc5n[nH]c(NCC)c5c4)[C@H](Cc4ccccc4)[C@H](O)[C@@H](O)[C@H]3Cc3ccccc3)cc12 [3-alkylaminoindazole cyclic urea, (Et)] | 41
4 | CNc1[nH]nc2ccc(CN3C(=O)N(Cc4ccc5n[nH]c(NC)c5c4)[C@H](Cc4ccccc4)[C@H](O)[C@@H](O)[C@H]3Cc3ccccc3)cc12 [3-alkylaminoindazole cyclic urea, (Me)] | 18
5 | Nc1n[nH]c2ccc(CN3C(=O)N(CC4CC4)[C@H](Cc4ccccc4)[C@H](O)[C@@H](O)[C@H]3Cc3ccccc3)cc12 [Cyclopropylmethyl cyclic urea] | 20
6 | Nc1n[nH]c2ccc(CN3C(=O)N(Cc4ccccc4)[C@H](Cc4ccccc4)[C@H](O)[C@@H](O)[C@H]3Cc3ccccc3)cc12 [DMP850] | 31
7 | Nc1n[nH]c2ccc(CN3C(=O)N(Cc4ccc5ccccc5c4)[C@H](Cc4ccccc4)[C@H](O)[C@@H](O)[C@H]3Cc3ccccc3)cc12 [2-Naphthylmethyl cyclic urea] | 23
8 | O=C1N(Cc2ccc(CO)cc2)[C@H](Cc2ccccc2)[C@H](O)[C@@H](O)[C@@H](Cc2ccccc2)N1Cc1ccc(CO)cc1 [(4R,5S,6S,7R)-4,7-dibenzyl-5,6-dihydroxy-1,3-bis({[4-(hydroxymethyl)phenyl]methyl})-1,3-diazepan-2-one] | 310
9 | Nc1n[nH]c2ccc(CN3C(=O)N(CC4CCC4)[C@H](Cc4ccccc4)[C@H](O)[C@@H](O)[C@H]3Cc3ccccc3)cc12 [Cyclobutylmethyl cyclic urea] | 16

Continued, values first:

Row | Ki [pM] | Compound
10 | < 10 | Nc1n[nH]c2ccc(CN3C(=O)N(Cc4ccc5[nH]nc(N)c5c4)[C@H](Cc4ccccc4)[C@H](O)[C@@H](O)[C@H]3Cc3ccccc3)cc12 [3-alkylaminoindazole cyclic urea, (H)]
11 | 21 | CCCCN1C(=O)N(Cc2ccc3[nH]nc(N)c3c2)[C@H](Cc2ccccc2)[C@H](O)[C@@H](O)[C@H]1Cc1ccccc1 [(4R,5S,6S,7R)-1-(3-Amino-1H-indazol-5-ylmethyl)-4,7-dibenzyl-3-butyl-5,6-dihydroxy-[1,3]diazepan-2-one]
12 | 18 | O=C1N(Cc2ccc3[nH]ncc3c2)[C@H](Cc2ccccc2)[C@H](O)[C@@H](O)[C@@H](Cc2ccccc2)N1Cc1ccc2[nH]ncc2c1 [(4R,5S,6S,7R)-4,7-dibenzyl-5,6-dihydroxy-1,3-bis(1H-indazol-5-ylmethyl)-1,3-diazepan-2-one]
13 | 10 | Nc1n[nH]c2ccc(CN3C(=O)N(Cc4ccc5[nH]nc(N)c5c4)[C@H](Cc4ccccc4)[C@H](O)[C@@H](O)[C@H]3Cc3ccccc3)cc12 [3-Aminoindazole, 2]
14 | 41 | CCCCCN1C(=O)N(Cc2ccc3[nH]nc(N)c3c2)[C@H](Cc2ccccc2)[C@H](O)[C@@H](O)[C@H]1Cc1ccccc1 [n-Pentyl cyclic urea]
15 | 130 | CCCCCCN1C(=O)N(Cc2ccc3[nH]nc(N)c3c2)[C@H](Cc2ccccc2)[C@H](O)[C@@H](O)[C@H]1Cc1ccccc1 [n-Hexyl cyclic urea]
16 | 90 | CC(C)Nc1[nH]nc2ccc(CN3C(=O)N(Cc4ccc5n[nH]c(NC(C)C)c5c4)[C@H](Cc4ccccc4)[C@H](O)[C@@H](O)[C@H]3Cc3ccccc3)cc12 [3-alkylaminoindazole cyclic urea, (i-Pr)]
